Experimental data as given in patent publication US7175853B1, “Therapeutic system which can be moisture-activated” (LTS Lohmann Therapie-Systeme AG, priority 1998, dated 2007).

Test: Dehydration behaviour of activators by Difference Scanning Calorimetry (DSC)
Type: physicochemical
Settings: FIG. 14a-c
Description: The dehydration behaviour of these substances was examined in three example substances by Difference Scanning Calorimetry (DSC). This thermal analysis provides information on the stages of dehydration taking place under energy absorption, and on the respective typical temperature.

Structure (SMILES): O.O.O.O.O.O=[Si]([O-])[O-].[Na+].[Na+] [Na2SiO3.5H2O, sodium metasilicate pentahydrate]
- dehydration temperature: 86.5 °C
